Measurements published in patent US7928108B2, “Pyridinone derivative for the treatment of premature ejaculation” (Glaxo Group Limited, priority 2007, dated 2011).

Assays:
[1] = biological target: T1, Human 5-HT1B receptor (Homo sapiens, UniProt P28222); test: Human 5-HT1B receptor affinity, [3H]-5-HT radioligand binding; settings: CHO cell membranes expressing 5-HT1B, [3H]-5-HT 3 nM, 37° C. 45 minutes; assay b); read-out: pKi against 5-HT1B (converted)
T1 construct: expressed in transfected cells; host or cells: CHO
T1 sequence (P28222 whole entry): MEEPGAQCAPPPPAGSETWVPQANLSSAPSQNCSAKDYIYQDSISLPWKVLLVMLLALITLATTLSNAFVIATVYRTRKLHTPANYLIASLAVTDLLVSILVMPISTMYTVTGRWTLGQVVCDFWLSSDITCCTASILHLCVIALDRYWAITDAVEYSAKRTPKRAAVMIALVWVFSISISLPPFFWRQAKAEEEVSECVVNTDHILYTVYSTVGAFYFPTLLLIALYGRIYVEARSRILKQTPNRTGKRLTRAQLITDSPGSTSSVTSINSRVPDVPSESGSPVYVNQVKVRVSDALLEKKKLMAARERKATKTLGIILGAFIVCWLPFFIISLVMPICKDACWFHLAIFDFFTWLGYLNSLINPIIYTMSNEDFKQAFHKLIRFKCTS
Method: (§1) b) Human 5-HT1A, 5-HT1B and 5-HT1D Receptor Affinity
(§2) The affinities of the compounds of the invention for the 5-HT1A, 5-HT1B and 5-HT1D receptors may be determined by the following assay.
(§3) Homogenise chinese hamster ovary (CHO) cells expressing 5-HT1A receptors (4×10^7 cells/ml) in Tris buffer and store in 1 ml aliquots. Homogenise CHO cells expressing 5-HT1B receptors (4×10^7 cells/ml) in Tris buffer and store in 1.5 ml aliquots. Homogenise CHO cells expressing 5-HT1D receptors (1×10^8/ml) in Tris buffer and stored in 1 ml aliquots. The binding assays are carried out in a total volume of 500 μl. For each compound to be tested make up seven solutions ranging in concentration from 0.3 mM to 0.3 nM (100× final concentrations). Dispense 5 μl of solution containing the test compound per well and add 100 μl of radioligand at 5× final desired assay concentration, i.e. [^3H]-5-HT 15 nM (final assay concentration: 3 nM) in Tris Mg HCl buffer (pH 7.7) for 5-HT1B/1D receptors and [^3H]WAY100635 2.5 nM (final assay concentration: 0.5 nM) in Tris Mg HCl buffer (pH 7.7) containing 150 μM GPP(NH)p (final assay concentration: 30 μM) for 5-HT1A receptors. Add 400 μl/well of a cell membrane suspension in Tris Mg HCl buffer (pH 7.7) to make a total volume of 505 μl. Incubate at 37° C. for 45 minutes. […] Measure radioactivity using Topcount scintillation counting. […]

[2] = biological target: T2, Human 5-HT1A receptor (Homo sapiens, UniProt P08908); test: Human 5-HT1A receptor functional potency, GTPγS binding protocol; format: biochemical; parameters: expressed in transfected cells; settings: GTPγS binding, membranes of HEK293 cells transfected with human 5-HT1A; assay a); read-out: fpKi against 5-HT1A (converted)
T2 sequence (P08908 1-422): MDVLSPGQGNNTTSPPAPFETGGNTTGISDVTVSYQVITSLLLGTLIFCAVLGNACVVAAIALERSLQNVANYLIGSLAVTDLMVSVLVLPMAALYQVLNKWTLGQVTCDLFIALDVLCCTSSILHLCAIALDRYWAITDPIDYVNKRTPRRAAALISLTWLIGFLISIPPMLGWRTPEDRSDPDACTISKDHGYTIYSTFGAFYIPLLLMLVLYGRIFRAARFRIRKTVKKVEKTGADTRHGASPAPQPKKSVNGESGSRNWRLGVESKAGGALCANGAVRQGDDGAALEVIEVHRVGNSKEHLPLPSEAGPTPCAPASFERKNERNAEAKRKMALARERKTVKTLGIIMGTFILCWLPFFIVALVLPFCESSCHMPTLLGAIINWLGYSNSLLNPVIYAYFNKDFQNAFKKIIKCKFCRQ
Method: a) Human 5-HT1A Receptor Functional Potency
The functional potency of the compounds of the invention for the 5-HT1A receptor may be determined by the following GTPγS binding protocol. Cells used in the study are CHO Cells and Human Embryo Kidney (HEK293). Transfect cells with DNA coding for human receptor as follows: HEK293—5-HT1A. Initially dissolve test compounds in 100% dimethyl sulfoxide to a concentration of 10 mM. Serially dilute the test compounds in 100% dimethyl sulphoxide using a Biomek FX in 384 well assay plates, so that the final top concentration of test compound is 3 μM in the assay. Add the test compound at 1.0% total assay volume (TAV) to a solid, white, 384 well assay plate (Griener). Add 50% TAV of precoupled (for 60 mins @ RT) membranes (6 ug/well), Wheatgerm Agglutinin Polystyrene Scintillation Proximity Assay beads (RPNQ0260 Amersham International) (0.25 mg/well) in 20 mM HEPES pH 7.4, 100 mM NaCl, 3 mM MgCl2 and 10 μM GDP and saponin 60 m/well FAC was also added. The third addition may be either a 20% TAV addition of either; buffer for agonist format, or EC80 final assay concentration (FAC) of agonist, prepared in assay buffer, 5HT, for antagonist format.
Start the assay by the addition of 29% TAV of GTPγS 0.38 nM FAC.
After all additions, incubate the assay plates at RT for 2-3 hours. […] Read the assay plates between 3-6 hours after the final addition.

[3] = biological target: T2, Human 5-HT1A receptor; test: Human 5-HT1A receptor affinity, [3H]WAY100635 radioligand binding; parameters: expressed in transfected cells; host or cells: CHO; settings: CHO cell membranes expressing 5-HT1A, [3H]WAY100635 0.5 nM, 37° C. 45 minutes; assay b); read-out: pKi against 5-HT1A (converted)
Method: as §1, §2, §3

Ki [1]: 200000 pM | Ki [2]: 501 pM | Ki [3]: 501 pM
SMILES: COc1cccn(CCCCN2CCN(c3cccc4nc(C)ccc34)CC2)c1=O [compound of formula (I), 3-(methyloxy)-1-{4-[4-(2-methyl-5-quinolinyl)-1-piperazinyl]butyl}-2(1H)-pyridinone]
